Test results as given in patent US7776897B2, “Triazole derivative or salt thereof” (Astellas Pharma Inc., priority 2004, dated 2010).

Experiments:
[1] = biological target: human recombinant 11β-HSD1 (Homo sapiens, UniProt P28845); experiment: Test for measuring human 11β-HSD1 inhibitory activity (HTRF cortisol detection); assay type: biochemical; conditions: human recombinant enzyme, 200 nM cortisone, 40 μM NADPH, pH 6.6, room temperature 1 hour; average of 3 wells
Procedure: (§1) (1) Test for Measuring Human 11β-HSD1/11β-HSD2 Inhibitory Activity
(§2) The procedure for measuring human 11β-HSD1/11β-HSD2 inhibitory activity is as follows. The enzymatic reaction and measurement were performed using a 384-well plate. The reaction was carried out by adding a test compound in various concentrations to a reaction solution containing a 10 mM phosphate buffer solution (pH 6.6), 200 nM cortisone, 40 μM reduced nicotinamide adenine dinucleotide phosphate (NADPH), and human recombinant 11β-HSD1 and then incubating the mixture at room temperature for 1 hour (10 μl/well). The test compound was dissolved in dimethyl sulfoxide (DMSO) to prepare a sample so that the DMSO concentration in the reaction solution became 1%. After the enzymatic reaction, an enzymatic inhibitory activity was measured by detecting cortisol using homogeneous time-resolved fluorescence (HTRF). XL-665-labeled cortisol containing 400 μM carbenoxolone and cryptate-labeled cortisol antibody (CIS Bio International) were added in each amount of 5 μl/well, followed by incubation at room temperature for 2 hours. Then, fluorescence intensity was measured using a fluorophotometer (product name: Discovery, PerkinElmer) and an enzymatic inhibitory activity was calculated based on two-wavelength fluorescence intensity ratio (665 nm/620 nm).
(§3) The results of the measurement were calculated as an average of the values for 3 wells obtained under the same conditions.

[2] = biological target: T1, human recombinant 11β-HSD2 (Homo sapiens, UniProt P80365); experiment: Test for measuring human 11β-HSD2 inhibitory activity (HTRF cortisol detection); assay type: biochemical; conditions: human recombinant enzyme, 200 nM cortisol, 200 μM NAD, pH 8.0, 37° C. 2 hours; average of 3 wells
T1 sequence (P80365 1-405): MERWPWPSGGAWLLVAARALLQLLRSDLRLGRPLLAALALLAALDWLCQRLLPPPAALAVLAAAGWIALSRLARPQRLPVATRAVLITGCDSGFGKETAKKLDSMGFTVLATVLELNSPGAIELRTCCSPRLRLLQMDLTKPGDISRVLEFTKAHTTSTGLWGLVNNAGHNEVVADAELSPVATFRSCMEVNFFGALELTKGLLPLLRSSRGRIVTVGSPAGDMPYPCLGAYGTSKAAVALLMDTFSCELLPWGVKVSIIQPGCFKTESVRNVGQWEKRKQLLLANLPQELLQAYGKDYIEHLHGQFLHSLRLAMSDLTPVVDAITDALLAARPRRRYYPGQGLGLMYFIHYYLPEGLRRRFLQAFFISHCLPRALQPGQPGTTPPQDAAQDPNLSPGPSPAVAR
Procedure: as §1, §2
The measurement of 11β-HSD2 inhibitory activity was performed in the same manner as in the measurement of 11β-HSD1 inhibitory activity except for enzymatic reaction conditions. The enzymatic reaction was carried out by adding a test compound in various concentrations to a reaction solution containing a 40 mM tris-hydrochloride buffer solution (Tris-HCl) (pH 8.0), 200 nM cortisol, 200 μM nicotinamide adenine dinucleotide (NAD), and human recombinant 11β-HSD2 and then incubating the mixture at 37° C. for 2 hours (10 μl/well).
as §3

[3] = tested on: ob/ob mice; experiment: ob/ob mouse blood-glucose lowering test; assay type: in vivo; conditions: male ob/ob mice, 30 mg/kg bid orally for 9 days, measured 12 hours after final administration, non-fasting, n=6
Procedure: (2) ob/ob Mouse Blood-Glucose Lowering Test
A compound solution was prepared using 6% 2-hydroxypropyl-p-cyclodextrin as a solvent. Using 8 weeks-old male ob/ob mice (blood-glucose level of 300 mg or more), blood-glucose levels were measured under non-fasting conditions and then the mice were divided into groups so that the blood-glucose levels became even among the groups. The test compound was orally administered twice per day repeatedly for 9 days (30 mg/kg, bid) and a blood-sugar level was measured 12 hours after final administration (n=6). The blood-glucose level was measured by subjecting a collected blood to protein-removing treatment and then conducting colorimetric quantitative determination of a glucose level (mg/dL) in the supernatant.

Sequence of human recombinant 11β-HSD1 (P28845 whole entry): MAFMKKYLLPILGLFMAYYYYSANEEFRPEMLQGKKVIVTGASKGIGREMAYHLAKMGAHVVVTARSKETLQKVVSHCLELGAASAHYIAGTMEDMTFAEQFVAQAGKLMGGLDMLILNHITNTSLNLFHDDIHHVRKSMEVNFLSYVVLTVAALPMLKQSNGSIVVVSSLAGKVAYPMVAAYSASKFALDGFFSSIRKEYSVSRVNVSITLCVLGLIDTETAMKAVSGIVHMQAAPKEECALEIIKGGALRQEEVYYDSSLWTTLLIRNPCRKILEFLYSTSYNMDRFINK

Compound `c1csc(C2(c3nnc4n3CCCCC4)CCCC2)c1` [Example 60] has an IC50 [1] of 0.013 µM and an IC50 [2] greater than 3 µM.

In the case of `Clc1ccc(C2(c3nnc4n3CCCCC4)CCCC2)s1` [Example 62], the IC50 [1] is reported as 0.0053 µM and the IC50 [2] is reported as greater than 3 µM.

Compound `c1csc(C2(c3nnc4n3CCCCCC4)CCCC2)c1` [Example 68] has an IC50 [1] of 0.0044 µM, a blood-glucose lowering action [3] of 32% and an IC50 [2] greater than 1 µM.

In the case of `CC(C)(c1cccs1)c1nnc2n1CCCCCC2` [Example 100], the IC50 [1] is reported as 0.0066 µM and the IC50 [2] is reported as greater than 1 µM.

Work on `CN(C1(c2nnc(-c3ccccc3Cl)n2C)CCCC1)S(=O)(=O)c1ccccc1` [Example 115] yielded an IC50 [1] of 0.015 µM.

`Cn1cccc1C(C)(C)c1nnc(-c2ccccc2Cl)n1C` [Example 158] showed an IC50 [1] of 0.018 µM and an IC50 [2] greater than 3 µM.

`Cn1c(-c2ccccc2Cl)nnc1C(C)(C)NC(=O)c1ccccc1` [Example 174] was tested, and the IC50 [1] was 0.06 µM.
